Results published in US6825230B2, “Spiro and dispiro 1,2,4-trixolane antimalarials” (Medicines for Malaria Venture MMV, priority 2002, dated 2004).
≈ marks a conversion by molar mass, not a printed value. Where two headings read alike, the source gives them in different places.

What was measured:
[1] = tested on: Schistosoma mansoni adult worms (49-day-old); test: Effect on adult schistosomes (49-day-old) in infected mice; type: in vivo; conditions: single 400 mg/kg per os; for % reduction of adult worms growth at day 49 after per os application of 400 mg/kg, TWR (%): 49-day-old adults, total worm reduction rate; for Adult worms day 49, per os 400 mg/kg, DEAD WORM (%): percentage of dead worm in the liver
Protocol: Mice were infected with 100 Schistosoma mansoni cercariae on day 49 post-treatment. Each group was treated per os with OZ compounds at single doses of 200, 400, and 600 mg/kg. Untreated mice served as the control. All groups were killed 4 weeks after treatment and the liver and intestine were removed and separated. The liver and intestine were compressed and alive male and female worms could be seen and counted.

[2] = tested on: chloroquine-resistant K1 strain of P. falciparum; test: In vitro antimalarial semiautomated microdilution assay ([3H]-hypoxanthine incorporation), K1 strain; type: cell-based, Plasmodium falciparum; conditions: Plasmodium falciparum
Summary of the method: (§1)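 Logit regression analysis yields the fifty percent inhibitory concentration. Compounds are tested by semiautomated microdilution on intraerythrocytic parasites drawn from asynchronous stock cultures, measuring [3H]-hypoxanthine incorporation.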

[3] = tested on: chloroquine-sensitive NF54 strain of P. falciparum; test: In vitro antimalarial semiautomated microdilution assay ([3H]-hypoxanthine incorporation), NF54 strain; type: cell-based, Plasmodium falciparum; conditions: Plasmodium falciparum
Summary of the method: as §1

[4] = tested on: ANKA strain of P. berghei; test: Single dose STI in vivo screen in infected mice; set-up: species or system Plasmodium berghei; conditions: for Survival (days) 10 mg/kg po: single 10 mg/kg po in 3% ethanol and 7% Tween 80; for Survival (days) 10 mg/kg po / Survival (days) 10 mg/kg SSV po / Survival (days) 10 mg/kg sc: untreated 6-7 days; for Activity (%) 10 mg/kg po: single 10 mg/kg po in 3% ethanol and 7% Tween 80 on day 1 post-infection; for Activity (%) 10 mg/kg po / Activity (%) 10 mg/kg SSV po / Activity (%) 10 mg/kg sc / Activity (%) 3 mg/kg SSV po: percent reduction in parasitemia on day 3; for Survival (days) 10 mg/kg SSV po: single 10 mg/kg po in SSV; for Activity (%) 10 mg/kg SSV po: single 10 mg/kg po in standard suspending vehicle (SSV) on day 1 post-infection; for Survival (days) 10 mg/kg sc: single 10 mg/kg sc in 3% ethanol and 7% Tween 80; for Activity (%) 10 mg/kg sc: single 10 mg/kg sc in 3% ethanol and 7% Tween 80 on day 1 post-infection; for Survival (days) 3 mg/kg SSV po / Activity (%) 3 mg/kg SSV po: single 3 mg/kg po in SSV
[5] = chloroquine-resistant K1 strain, 72 h incubation, read-out: IC50 (ng/ml) K1
[6] = chloroquine-sensitive NF54 strain, 72 h incubation, read-out: IC50 (ng/ml) NF54
[7] = K1, 72 h, read-out: IC50 (ng/ml) K1, chloroquine-resistant K1 strain, 72 h incubation
[8] = NF54, 72 h, read-out: IC50 (ng/ml) NF54, chloroquine-sensitive NF54 strain, 72 h incubation

| SMILES | % reduction of adult worms growth at day 49 after per os application of 400 mg/kg, TWR (%) [1] | Adult worms day 49, per os 400 mg/kg, DEAD WORM (%) [1] | IC50 [2, 5] | IC50 [3, 6] | Survival (days) 10 mg/kg po [4] | Activity (%) 10 mg/kg po [4] | Survival (days) 10 mg/kg SSV po [4] | Activity (%) 10 mg/kg SSV po [4] | Survival (days) 10 mg/kg sc [4] | Activity (%) 10 mg/kg sc [4] | IC50 [2, 7] | IC50 [3, 8] | Survival (days) 3 mg/kg SSV po [4] | Activity (%) 3 mg/kg SSV po [4] |
| --- | --- | --- | --- | --- | --- | --- | --- | --- | --- | --- | --- | --- | --- | --- |
| CC(=O)N1CCC2(CC1)OOC1(O2)C2CC3CC(C2)CC1C3 (centres unmarked) [OZ49] | 17% | 10% |  |  |  |  |  |  |  |  |  |  |  |  |
| CCS(=O)(=O)N1CCC2(CC1)OOC1(O2)C2CC3CC(C2)CC1C3 (centres unmarked) [OZ79] | 4% | 0% |  |  |  |  |  |  |  |  |  |  |  |  |
| O=C(CO)N1CCC2(CC1)OOC1(O2)C2CC3CC(C2)CC1C3 (centres unmarked) [OZ83] | 7% | 19% |  |  |  |  |  |  |  |  |  |  |  |  |
| O=C1c2ccccc2C(=O)N1C[C@H]1CC[C@]2(CC1)OOC1(O2)C2CC3CC(C2)CC1C3 (some centres unmarked) [OZ146] |  |  | 2.2 ng/mL (≈ 5.19 nM) | 2.7 ng/mL (≈ 6.38 nM) | 7.0 days | 62% | 6.3 days | 40% | 9.0 days | 91% |  |  |  |  |
| C(CNC1CCC2(CC1)OOC1(O2)C2CC3CC(C2)CC1C3)CN1CCOCC1 (centres unmarked) [OZ161] |  |  |  |  | 7.0 days | 59% | 6.7 days | 46% | 12.7 days | 99.96% | 0.4 ng/mL (≈ 0.984 nM) | 0.5 ng/mL (≈ 1.23 nM) |  |  |
| CS(=O)(=O)C[C@H]1CC[C@]2(CC1)OO[C@]1(O2)C2CC3CC(C2)CC1C3 [OZ307] |  |  |  |  |  |  | 9.4 days | 98% |  |  | 0.62 ng/mL (≈ 1.74 nM) | 0.88 ng/mL (≈ 2.47 nM) | 7.8 days | 74% |
| O=C(NO)[C@H]1CC[C@]2(CC1)OOC1(O2)C2CC3CC(C2)CC1C3 (some centres unmarked) [OZ116] |  |  |  |  | 7.7 days | 97% | 8.3 days | 96% | 8.0 days | 96% | 4.2 ng/mL (≈ 13 nM) | 3.3 ng/mL (≈ 10.2 nM) |  |  |
| O=C(C[C@H]1CC[C@]2(CC1)OOC1(O2)C2CC3CC(C2)CC1C3)N1CCCCC1 (some centres unmarked) [OZ218] |  |  | 2 ng/mL (≈ 5.13 nM) | 3 ng/mL (≈ 7.7 nM) | 10.0 days | 98% | 14.3 days | 99.30% | 9.0 days | 99.68% |  |  |  |  |
| BrC[C@H]1CC[C@]2(CC1)OOC1(O2)C2CC3CC(C2)CC1C3 (some centres unmarked) [OZ123] |  |  | 1.6 ng/mL (≈ 4.48 nM) | 1.9 ng/mL (≈ 5.32 nM) | 8.0 days | 99.66% | 7.0 days | 94% | 16 days | 99.96% |  |  |  |  |
| O=C1CN(C[C@H]2CC[C@]3(CC2)OOC2(O3)C3CC4CC(C3)CC2C4)CCN1 (some centres unmarked) [OZ285] |  |  | 1.3 ng/mL (≈ 3.45 nM) | 1.8 ng/mL (≈ 4.78 nM) |  |  | 8.7 days | 99.81% |  |  |  |  | 7.6 days | 72% |
| CONC(=O)C[C@H]1CC[C@]2(CC1)OOC1(O2)C2CC3CC(C2)CC1C3 (some centres unmarked) [OZ213] |  |  | 2.3 ng/mL (≈ 6.54 nM) | 2.8 ng/mL (≈ 7.97 nM) | 8.0/8.0/8.0 days | 83% | 8.0/8.0/8.0 days | 74% | 8.0/8.0/8.0 days | 85% |  |  |  |  |
| O=C(O)CCC[C@H]1CC[C@]2(CC1)OOC1(O2)C2CC3CC(C2)CC1C3 (some centres unmarked) [OZ261] |  |  | 39 ng/mL (≈ 111 nM) | 18 ng/mL (≈ 51.4 nM) | 7.0 days | 61% | 7.0 days | 47% | 8.0 days | 92% |  |  |  |  |
